Test: Antiviral activity using H1HeLa cells (ATCC) infected with HRV-14

Q: With NC(=O)c1cccc(/C=C/C(=O)OCCO)c1 [3-(3-Carbamoyl-phenyl)-acrylic acid 2-hydroxy-ethyl ester] as the compound, how does the EC50 read?
A: 20 µM

Q: Which EC50 does the source give for CC(=O)C=Cc1cccc(C(N)=O)c1 [3-(3-Oxo-but-1-enyl)-benzamide] here?
A: 32 µM

Q: With CCOC(=O)/C=C/c1cccc(C(N)=O)c1 [3-(3-Carbamoyl-phenyl)-acrylic acid ethyl ester] as the compound, how does the EC50 read?
A: 15.9 µM

Q: For CN(C)c1ccc(C(=O)/C=C/c2cccc(C(N)=O)c2)cc1 [3-[3-(4-Dimethylamino-phenyl)-3-oxo-propenyl]-benzamide], which EC50 is on record?
A: > 15 µM

Q: For CCOC(=O)/C=C/c1cc(CN2CCN(C(=O)OCC)CC2)cc(C(N)=O)c1 [4-[3-Carbamoyl-5-(2-ethoxycarbonyl-vinyl)-benzyl]-piperazine-1-carboxylic acid ethyl ester], which EC50 is on record?
A: 1.8 µM

Q: Which EC50 does the source give for COC(=O)/C=C/c1cccc(C(N)=O)c1 [3-(3-Carbamoyl-phenyl)-acrylic acid methyl ester] here?
A: 150 µM

Q: With NC(=O)c1cccc(/C=C/C(=O)c2ccccn2)c1 [3-(3-Oxo-3-pyridin-2-yl-propenyl)-benzamide] as the compound, how does the EC50 read?
A: 50 µM

Q: With NC(=O)c1cccc(/C=C/C(=O)OCc2ccccc2)c1 [3-(3-Carbamoyl-phenyl)-acrylic acid benzyl ester] as the compound, how does the EC50 read?
A: 5.6 µM

Q: Which EC50 does the source give for COc1ccc(C(=O)/C=C/c2cccc(C(N)=O)c2)cc1 [3-[3-(4-Methoxy-phenyl)-3-oxo-propenyl]-benzamide] here?
A: > 22 µM

Q: With CCOC(=O)/C=C/c1cc(O)cc(C(N)=O)c1 [3-(3-Carbamoyl-5-hydroxy-phenyl)-acrylic acid ethyl ester] as the compound, how does the EC50 read?
A: > 100 µM

Q: With CCOC(=O)/C=C/c1cc(CSc2nnc(-c3ccccn3)o2)cc(C(N)=O)c1 [3-[3-Carbamoyl-5-(5-pyridin-2-yl-[1,3,4]oxadiazol-2-ylsulfanylmethyl)-phenyl]-acrylic acid ethyl ester] as the compound, how does the EC50 read?
A: 5.6 µM

Q: For CCOC(=O)/C=C/c1cc(CN2CCN(c3ncccn3)CC2)cc(C(N)=O)c1 [3-[3-Carbamoyl-5-(4-pyrimidin-2-yl-piperazin-1-ylmethyl)-phenyl]-acrylic acid ethyl ester], which EC50 is on record?
A: 1 µM

Q: Which EC50 does the source give for CCOC(=O)/C=C/c1cc(CN2CCN(c3ccccc3C#N)CC2)cc(C(N)=O)c1 [3-{3-Carbamoyl-5-[4-(2-cyano-phenyl)-piperazin-1-ylmethyl]-phenyl}-acrylic acid ethyl ester] here?
A: 0.6 µM

Q: Which EC50 does the source give for CCOC(=O)/C=C/c1cc(CN(CC)Cc2ccncc2)cc(C(N)=O)c1 [3-{3-Carbamoyl-5-[(ethyl-pyridin-4-ylmethyl-amino)-methyl]-phenyl}-acrylic acid ethyl ester] here?
A: 5.8 µM

Q: Which EC50 does the source give for CCOC(=O)/C=C/c1cc(C(N)=O)ccc1C [3-(5-Carbamoyl-2-methyl-phenyl)-acrylic acid ethyl ester] here?
A: > 100 µM

Q: For NC(=O)c1cccc(/C=C/C(=O)c2ccco2)c1 [3-(3-Furan-2-yl-3-oxo-propenyl)-benzamide], which EC50 is on record?
A: > 71 µM

Q: For NC(=O)c1cccc(/C=C/C(=O)OCCc2ccccc2)c1 [3-(3-Carbamoyl-phenyl)-acrylic acid phenethyl ester], which EC50 is on record?
A: 100 µM

Q: With CCOC(=O)/C=C/c1ccc(OCc2ccccc2)c(C(N)=O)c1 [3-(4-Benzyloxy-3-carbamoyl-phenyl)-acrylic acid ethyl ester] as the compound, how does the EC50 read?
A: > 320 µM

Q: For CCOC(=O)/C(C#N)=C/c1cccc(C(N)=O)c1 [3-(3-Carbamoyl-phenyl)-2-cyano-acrylic acid ethyl ester], which EC50 is on record?
A: > 100 µM

Q: For NC(=O)c1cccc(/C=C/C(=O)c2ccccc2)c1 [3-(3-Oxo-3-phenyl-propenyl)-benzamide], which EC50 is on record?
A: 28 µM

Q: With CCOC(=O)/C=C/c1cc(CN2CCN(c3ccccn3)CC2)cc(C(N)=O)c1 [3-[3-Carbamoyl-5-(4-pyridin-2-yl-piperazin-1-ylmethyl)-phenyl]-acrylic acid ethyl ester] as the compound, how does the EC50 read?
A: 2.5 µM

Q: With CCOC(=O)/C=C/c1cc(CO)cc(C(N)=O)c1 [3-(3-Carbamoyl-5-hydroxymethyl-phenyl)-acrylic acid ethyl ester] as the compound, how does the EC50 read?
A: > 100 µM

Q: For NC(=O)c1ccc2c(c1)C=CC2=O [1-Oxo-1H-indene-5-carboxylic acid amide], which EC50 is on record?
A: > 20 µM

Reference: BindingDB's records for doi:10.1021/jm9903242 (Agouron Pharmaceuticals, 2000)
